Reference: ChEMBL document CHEMBL1201862, “PubChem BioAssay data set” (2004)
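In this assay, cells in 96-well plates receive the compound at five concentrations for 48 hours. Endpoints are linearly interpolated between the surrounding concentrations. GI50 is the concentration that inhibits growth by half.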 Activity calls are given as the source filed them. Cut-off read from the data, not from the text of the source: active = GI50 up to about 1.1 µM and inactive = higher.

Tests used:
Experiment in all cases: growth of human tumour cells (NCI), 48 h
BT-549 = test system: BT-549
CAKI-1 = test system: CAKI-1
DU-145 = test system: DU-145
HOP-62 = test system: HOP-62
HOP-92 = test system: HOP-92
MCF7 = test system: MCF7
MDA-MB-231 = test system: MDA-MB-231
NCI-H522 = test system: NCI-H522
OVCAR-3 = test system: OVCAR-3
OVCAR-4 = test system: OVCAR-4
OVCAR-8 = test system: OVCAR-8
PC-3 = test system: PC-3
RXF 393 = test system: RXF 393
SK-MEL-2 = test system: SK-MEL-2
SR = test system: SR
T47D = test system: T47D
TK-10 = test system: TK-10
UACC-62 = test system: UACC-62
UO-31 = test system: UO-31
LOX IMVI = test system: LOX IMVI

Measured: GI50

O=C(Nc1cccc(Cl)c1)Nn1cnnc1
inactive: BT-549 > 100 µM | CAKI-1 > 100 µM | DU-145 > 100 µM | HOP-62 > 100 µM | HOP-92 > 100 µM | MCF7 > 100 µM | MDA-MB-231 > 100 µM | NCI-H522 > 100 µM | OVCAR-3 > 100 µM | OVCAR-4 > 100 µM | OVCAR-8 > 100 µM | PC-3 > 100 µM | RXF 393 > 100 µM | SK-MEL-2 > 100 µM | SR > 100 µM | T47D > 100 µM | TK-10 > 100 µM | UACC-62 > 100 µM | UO-31 > 100 µM

CC(=O)Nc1ccc(-c2nc3ccccc3s2)cc1C
inactive: BT-549 27.5 µM | CAKI-1 18.2 µM | DU-145 22.2 µM | HOP-62 40.6 µM | HOP-92 > 100 µM | LOX IMVI 36.5 µM | MCF7 33.5 µM | MDA-MB-231 20 µM | OVCAR-4 42.5 µM | OVCAR-8 53.1 µM | PC-3 29 µM | RXF 393 44.7 µM | SK-MEL-2 37.1 µM | SR 27.7 µM | T47D 12.2 µM | TK-10 72.9 µM | UACC-62 47.1 µM | UO-31 17.9 µM

CC1=NN(c2nc(N)nc(COc3ccc(N)cc3)n2)C(C)(C)C1
inactive: BT-549 > 100 µM | CAKI-1 > 100 µM | DU-145 > 100 µM | HOP-62 > 100 µM | HOP-92 > 100 µM | LOX IMVI > 100 µM | MCF7 > 100 µM | MDA-MB-231 > 100 µM | OVCAR-4 > 100 µM | OVCAR-8 > 100 µM | PC-3 > 100 µM | RXF 393 > 100 µM | SK-MEL-2 > 100 µM | SR > 100 µM | T47D > 100 µM | TK-10 > 100 µM | UACC-62 > 100 µM | UO-31 > 100 µM

COc1ccc(CCN2C(=O)CC34C=CC(CC3C2=O)O4)cc1OC (stereo unspecified)
inactive: BT-549 > 100 µM | CAKI-1 > 100 µM | DU-145 > 100 µM | HOP-62 > 100 µM | HOP-92 97.5 µM | LOX IMVI > 100 µM | MCF7 > 100 µM | MDA-MB-231 > 100 µM | OVCAR-3 > 100 µM | OVCAR-4 > 100 µM | OVCAR-8 > 100 µM | PC-3 > 100 µM | SK-MEL-2 > 100 µM | SR > 100 µM | T47D > 100 µM | TK-10 > 100 µM | UACC-62 > 100 µM | UO-31 > 100 µM

CSc1ncc2c(C#N)c3n(C)c4ccccc4n3c(=O)c2n1
inactive: BT-549 > 100 µM | CAKI-1 > 100 µM | DU-145 > 100 µM | HOP-62 > 100 µM | HOP-92 > 100 µM | LOX IMVI > 100 µM | MCF7 > 100 µM | MDA-MB-231 > 100 µM | OVCAR-3 > 100 µM | OVCAR-4 > 100 µM | OVCAR-8 > 100 µM | PC-3 > 100 µM | RXF 393 > 100 µM | SK-MEL-2 > 100 µM | SR > 100 µM | T47D > 100 µM | TK-10 > 100 µM | UACC-62 > 100 µM | UO-31 > 100 µM

Cc1ccc([N+](=O)[O-])cc1S(=O)(=O)Nc1ccc(C2=NNC(c3ccccc3)C2)cc1 (stereo unspecified)
inactive: BT-549 18.4 µM | CAKI-1 11.9 µM | DU-145 27.9 µM | HOP-62 11.5 µM | HOP-92 33.3 µM | MCF7 14.9 µM | MDA-MB-231 15.3 µM | NCI-H522 13.8 µM | OVCAR-3 4.74 µM | OVCAR-4 14.5 µM | OVCAR-8 26.2 µM | PC-3 16.7 µM | RXF 393 8.36 µM | SK-MEL-2 18.5 µM | SR 15.1 µM | T47D 4.23 µM | TK-10 19.8 µM | UACC-62 9.33 µM | UO-31 24.9 µM

FC(F)(Sc1ccccn1)c1nc2ccccc2o1
inactive: BT-549 64.1 µM | CAKI-1 > 100 µM | DU-145 > 100 µM | HOP-62 > 100 µM | HOP-92 76.6 µM | MCF7 55.2 µM | MDA-MB-231 > 100 µM | NCI-H522 > 100 µM | OVCAR-3 61.4 µM | OVCAR-4 > 100 µM | OVCAR-8 > 100 µM | PC-3 > 100 µM | RXF 393 > 100 µM | SK-MEL-2 > 100 µM | SR > 100 µM | T47D > 100 µM | TK-10 > 100 µM | UACC-62 > 100 µM | UO-31 69.7 µM

CC1=C(C(=O)OCCc2ccc([N+](=O)[O-])cc2)C(c2ccccc2C(F)(F)F)C(C(=O)OC(C)C)=C(C)N1 (stereo unspecified)
inactive: BT-549 3.21 µM | CAKI-1 2.9 µM | DU-145 9.16 µM | HOP-62 3.51 µM | LOX IMVI 2.96 µM | MCF7 3.36 µM | MDA-MB-231 3.79 µM | NCI-H522 3.31 µM | OVCAR-3 3.48 µM | OVCAR-4 38 µM | OVCAR-8 4.04 µM | PC-3 1.98 µM | RXF 393 1.87 µM | SK-MEL-2 2.64 µM | SR 3.11 µM | T47D 3.12 µM | TK-10 3.78 µM | UACC-62 3.22 µM | UO-31 4.19 µM

C[n+]1ccccc1/C=C/c1ccc2c(c1)OCO2
inactive: BT-549 > 10 µM | CAKI-1 > 10 µM | DU-145 > 10 µM | HOP-62 > 10 µM | LOX IMVI > 10 µM | MCF7 > 10 µM | MDA-MB-231 > 10 µM | NCI-H522 > 10 µM | OVCAR-3 > 10 µM | OVCAR-4 > 10 µM | OVCAR-8 > 10 µM | PC-3 > 10 µM | RXF 393 > 10 µM | SK-MEL-2 > 10 µM | SR > 10 µM | T47D > 10 µM | TK-10 > 10 µM | UACC-62 > 10 µM

CC[C@H](C)[C@H](NC(=O)[C@@]1(O)[C@H](O)[C@]2(CC)C=CCN3CC[C@@]4(c5cc(Br)c(OC)cc5N(C)[C@@H]14)[C@@H]32)C(=O)OC
inactive: BT-549 88.5 µM | CAKI-1 22.5 µM | DU-145 > 100 µM | HOP-62 32.2 µM | LOX IMVI 16.8 µM | MCF7 35.6 µM | MDA-MB-231 15.7 µM | NCI-H522 27.5 µM | OVCAR-3 20.7 µM | OVCAR-4 4.84 µM | OVCAR-8 39.4 µM | PC-3 76.7 µM | RXF 393 45.5 µM | SK-MEL-2 26.2 µM | SR 27.2 µM | T47D 52.4 µM | TK-10 38.3 µM | UACC-62 12.6 µM | UO-31 44.4 µM
